Data on four compounds can be found in US12528777B2, “Quinazolinones derivatives for treatment of non-alcoholic fatty liver disease, preparation and use thereof” (Council of Scientific and Industrial Research, priority 2020, dated 2026).

In assay [1] the test system is ATGL. In words: ATGL level in mouse adipose tissue explants (western blot). The note with it: 24 hours, 100 nM, 500 nM and 1 μM. Type of assay: cell-based. Here is the method: To further strengthen the efficiency of the compounds 9 and 107, primary hepatocytes were isolated from mice and these compounds were treated in a dose dependent manner for 24 hours. Primary hepatocytes and adipose tissue explants were isolated from mice and subjected to compound treatment for 24 hours at the doses of 100 nM, 500 nM and 1 μM. Post cell harvesting, western blot was carried out with the lysate to check the ATGL level. ATGL and COP1 antibodies were used. Actin served the purpose of a loading control.
2. Adipocytes—2-4 months old chow-fed black male mouse (C57bl/6) was sacrificed using chloroform (SRL) and was cleaned with 70% ethanol. Under aseptic conditions, the ventral side of the mouse was cut open, and gonadal (epididymal) white adipose tissue were excised using scissors and suspended in 1×PBS supplemented with 0.1% BSA in a 10 cm culture plate. The attached blood vessels were removed and the adipose tissue was minced as much as possible. The suspension was centrifuged at 50 g for 2 minutes at 4° C. After centrifugation, the adipose tissue pieces suspended at the uppermost layer of the supernatant as emulsion were carefully extracted and plated in DMEM in 35 mm culture dishes. The explant tissue thus obtained was treated with different concentrations of compounds after 6-7 hours.

For assay [2], the system named is ATGL. In words: Reversal of ATGL decrease in COP1 overexpressing HepG2 cells. It counts as cell-based. Conditions: myc-DDK-COP1, 5 μM, 24 hours. On the procedure:
COP1 is an E3 ubiquitin ligase with ATGL as one of its targets for ubiquitination and subsequent proteasomal degradation by 26S proteasome. Therefore, it is only legit for ATGL levels to decrease upon COP1 overexpression. To this end, HepG2 cells were transfected with 500 ng of myc-DDK-COP1 plasmid using Lipofectamine 2000 and treated with 5 μM of the compounds 9 and 10 for 24 hours. 48 hours post transfection, cells were harvested and western blot was carried out.

Assay [3] concerns HepG2 cells. Kind of assay: Confocal microscopy: lipid droplets in oleate induced HepG2 cells. It counts as cell-based. The note with it: for Number of lipid droplets: HepG2 cells, 250 μM oleate induction; for Reduction in Lipid Droplets: oleate induced HepG2 cells, score. Also noted: key to Reduction in Lipid Droplets: + = slight or in insignificant; ++ = Moderate; +++ and ++++ = active; +++ and ++++ = active; +++++ = very active. In short, it runs like this:
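HepG2 cells were loaded with 250 μM oleate and given compound in DMSO (10 μM screen; 10 nM–5 μM dose series) for 24 h; BSA as negative control. Lipid droplets stained with BODIPY/Hoechst, imaged confocally; mean droplets per cell counted over ~20 cells versus oleate-only cells.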

Assay [4] relates to HepG2 cells. In words: Basal oxygen consumption rate (OCR) by Seahorse. It counts as cell-based. The note with it: 5 μM, 24 hours. On the procedure:
HepG2 cells were plated in Seahorse cell culture microplates (24 well). Cells were treated with 5 μM of compounds 9, 107, 238 and 238a for 24 hours. The calibrator plate was dipped in the calibrator solution and incubated overnight at 37° C. in a non-CO2 incubator. The next day, cells were washed with Agilent Seahorse XF Base Medium, Minimal DMEM twice, making sure to leave at least 50 μl of media in the wells and incubated for 1 hour at 37° C. in a non-CO2 incubator. Following this, oxygen consumption rate was measured in the Seahorse instrument. FIG. 12 illustrates basal oxygen consumption rate of compounds 9, 107, 238a, and 238.

The target of the next assay is COP1 (Homo sapiens, UniProt Q8NHY2). Kind of assay: Immunoprecipitation assay of COP1 autoubiquitination in HepG2 cells. Type of assay: cell-based. Conditions: 5 μM, 24 hours, MG-132. Here is the method:
COP1 is capable of auto ubiquitinating its own self and getting degraded via the proteasomal pathway. To probe into this, HepG2 cells were co-transfected with HA tagged Ubiquitin and myc-flag tagged COP1. The transfected cells were treated with 5 μM of compounds 9, 10, 107 and 238 for 24 hours. MG-132, a proteasomal inhibitor, was added 4 hours before harvesting the cells. Immune complexes were pulled down with anti-myc antibody and immunoblot was done using anti-HA antibody. […] Thus, the compounds of the present disclosure could be potent therapeutic targets by being able to block the proteasomal degradation of ATGL which would then be able to carry out its lipolytic action and reverse the symptoms of steatosis.
For checking the autoubiquitination status of COP1, HepG2 cells were cotransfected with 2 μg each of Myc-DDK-COP1 and HA-Ub plasmids using Lipofectamine 2000 reagent (Invitrogen) in OptiMEM media (HiMedia). The rest of the procedure is similar to that done for Myc-ATGL.

In assay [5] the test system is ATGL. In words: In vivo study: ATGL level in mouse liver. Also noted: species or system C57BL/6 mice. The note with it: 30 mg/kg orally. On the procedure:
6-8 weeks old healthy female C57BL/6 mice (average weight: 25 grams) were taken for the study. These were then divided into three groups comprising of three mice per group (Control, compound 107 fed for 8 hours and compound 107 fed for 16 hours). Mice were fed with 30 mg/kg of compound 107 orally. The compound was dissolved in 25% DMSO and 75% PBS. The control group was fed only with the solvent in which the compound was dissolved. Post 8 hours and 16 hours of feeding, mice were sacrificed and a portion of the excised liver tissue was homogenized in lysis buffer containing protease inhibitor cocktail. The homogenate was centrifuged at 20,000 g for 30 minutes following which the supernatant containing the protein lysate was collected. The lysate was then diluted accordingly and protein estimation was carried out by Bradford Assay. This was followed by Western Blotting wherein the levels of ATGL and COP1 were checked. Actin was used as the loading control.

Entries after “also recorded” stand apart in the source; their conditions may differ.

Chain of COP1 (Q8NHY2 whole entry): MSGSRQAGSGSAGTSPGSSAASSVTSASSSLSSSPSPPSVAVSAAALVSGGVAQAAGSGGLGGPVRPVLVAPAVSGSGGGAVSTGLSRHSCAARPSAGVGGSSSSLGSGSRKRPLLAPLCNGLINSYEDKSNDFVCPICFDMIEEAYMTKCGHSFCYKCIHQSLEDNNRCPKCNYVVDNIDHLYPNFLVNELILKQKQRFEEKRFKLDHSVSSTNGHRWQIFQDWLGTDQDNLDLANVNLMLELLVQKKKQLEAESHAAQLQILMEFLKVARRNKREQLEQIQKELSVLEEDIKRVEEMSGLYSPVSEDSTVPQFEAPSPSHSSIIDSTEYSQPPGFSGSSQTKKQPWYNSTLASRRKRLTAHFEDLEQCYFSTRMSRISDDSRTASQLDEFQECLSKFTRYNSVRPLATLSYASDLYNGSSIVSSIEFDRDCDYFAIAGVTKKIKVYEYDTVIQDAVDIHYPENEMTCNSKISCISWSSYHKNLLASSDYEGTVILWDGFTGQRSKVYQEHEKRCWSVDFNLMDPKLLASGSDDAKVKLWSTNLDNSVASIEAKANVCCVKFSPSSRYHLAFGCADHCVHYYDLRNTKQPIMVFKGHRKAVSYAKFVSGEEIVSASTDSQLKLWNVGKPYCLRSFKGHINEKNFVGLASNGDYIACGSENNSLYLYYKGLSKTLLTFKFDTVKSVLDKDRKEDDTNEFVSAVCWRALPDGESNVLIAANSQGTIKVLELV

As for `COCCn1cnc2ccc(NC(=O)Nc3cccc(C(C)=O)c3)cc2c1=O` [Compound 9, 1-(3-acetylphenyl)-3-(3-(2-methoxyethyl)-4-oxo-3,4-dihydroquinazolin-6-yl)urea], the “ATGL level in mouse adipose explants” value with ATGL [1] is “no such changes were observed; also recorded: this effect was absent; also recorded: did not show any significant changes in ATGL protein”. Also, the “Restoration of ATGL level upon COP1 overexpression” value in the assay with ATGL [2] is recorded as “could restore the reduced ATGL level; also recorded: could restore ATGL to its normal level”. Moreover, in the assay on HepG2 cells [3], the “Number of lipid droplets” value is on record as “decrease in the number of lipid droplets” and the “Reduction in Lipid Droplets” value is given as “++++”. Moreover, in the assay on HepG2 cells [4], the “Basal oxygen consumption rate” value was “higher oxygen consumption rate compared to control; also recorded: increase in the basal OCR values”. For the same compound, the “COP1 autoubiquitination in HepG2 cells” value on COP1 is reported as “effective in reducing; also recorded: markedly reduce COP1's auto ubiquitination property”.
With `COCCn1c(C)nc2ccc(NC(=O)Nc3cccc(C(C)=O)c3)cc2c1=O` [Compound 107, 1-(3-acetylphenyl)-3-(3-(2-methoxyethyl)-2-methyl-4-oxo-3,4-dihydroquinazolin-6-yl)urea], the “ATGL level in liver, 8 hours after feeding” value in the assay with ATGL [5] (8 hours) was “modestly increase ATGL level; also recorded: no significant impact”. Moreover, the “ATGL level in liver, 16 hours after feeding” value in the assay with ATGL [5] (16 hours) was “modestly increase ATGL level; also recorded: effective in increasing ATGL and COP1 levels”. Further, the “ATGL level in mouse adipose explants” value with ATGL [1] is reported as “no such changes were observed; also recorded: this effect was absent; also recorded: did not show any significant changes in ATGL protein”. Moreover, the “Reduction in Lipid Droplets” value in the assay with HepG2 cells [3] was “++++”. The “Basal oxygen consumption rate” value with HepG2 cells [4] is “higher oxygen consumption rate compared to control; also recorded: increase in the basal OCR values”. The “COP1 autoubiquitination in HepG2 cells” value at COP1 was “effective in reducing; also recorded: markedly reduce COP1's auto ubiquitination property”.
In the case of `CC(=O)c1cccc(NC(=O)Nc2ccc3ncn(CCCN4CCOCC4)c(=O)c3c2)c1` [Compound 139, 1-(3-acetylphenyl)-3-(3-(3-morpholinopropyl)-4-oxo-3,4-dihydroquinazolin-6-yl)urea], in the assay with HepG2 cells [3], the “Number of lipid droplets” value was “reduction in lipid droplets” and the “Reduction in Lipid Droplets” value is “+++”.
Take `COCCn1c(CN2CCCCC2)nc2ccc(NC(=O)Nc3cccc(C(C)=O)c3)cc2c1=O` [Compound 238, 1-(3-acetylphenyl)-3-(3-(2-methoxyethyl)-4-oxo-2-(piperidin-1-ylmethyl)-3,4-dihydroquinazolin-6-yl)urea]: the “Basal oxygen consumption rate” value in the assay on HepG2 cells [4] is recorded as “higher oxygen consumption rate compared to control; also recorded: increase in the basal OCR values”. The “COP1 autoubiquitination in HepG2 cells” value at COP1 is listed as “markedly reduce COP1's auto ubiquitination property”.
